In patent US12122763B2, “Substituted piperidines for androgen receptor degradation” (UBIX THERAPEUTICS, INC., priority 2020, dated 2024):

Target: T1, Androgen Receptor (AR) protein (Homo sapiens, UniProt P10275, T878A)
T1 construct: endogenous in cells; host or cells: LNCaP
Assay: Androgen Receptor (AR) protein degradation assay in LNCaP cells, western blotting
Assay type: cell-based
Conditions: 20 h; for inhibition at 0.01 µM: 0.01 μM compound; for inhibition at 0.1 µM: 0.1 μM compound; for inhibition at 1 µM: 1 μM compound
In short: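 LNCaP prostate cancer cells were cultured 3 days, then treated with compound for 20 h. Lysates in 1% SDS buffer were normalised by BCA, and 8 μg protein was run on 4–12% Bis-Tris gels. AR was immunoblotted with chemiluminescence, using GAPDH/β-actin as loading controls.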

T1 sequence (P10275 whole entry T878A): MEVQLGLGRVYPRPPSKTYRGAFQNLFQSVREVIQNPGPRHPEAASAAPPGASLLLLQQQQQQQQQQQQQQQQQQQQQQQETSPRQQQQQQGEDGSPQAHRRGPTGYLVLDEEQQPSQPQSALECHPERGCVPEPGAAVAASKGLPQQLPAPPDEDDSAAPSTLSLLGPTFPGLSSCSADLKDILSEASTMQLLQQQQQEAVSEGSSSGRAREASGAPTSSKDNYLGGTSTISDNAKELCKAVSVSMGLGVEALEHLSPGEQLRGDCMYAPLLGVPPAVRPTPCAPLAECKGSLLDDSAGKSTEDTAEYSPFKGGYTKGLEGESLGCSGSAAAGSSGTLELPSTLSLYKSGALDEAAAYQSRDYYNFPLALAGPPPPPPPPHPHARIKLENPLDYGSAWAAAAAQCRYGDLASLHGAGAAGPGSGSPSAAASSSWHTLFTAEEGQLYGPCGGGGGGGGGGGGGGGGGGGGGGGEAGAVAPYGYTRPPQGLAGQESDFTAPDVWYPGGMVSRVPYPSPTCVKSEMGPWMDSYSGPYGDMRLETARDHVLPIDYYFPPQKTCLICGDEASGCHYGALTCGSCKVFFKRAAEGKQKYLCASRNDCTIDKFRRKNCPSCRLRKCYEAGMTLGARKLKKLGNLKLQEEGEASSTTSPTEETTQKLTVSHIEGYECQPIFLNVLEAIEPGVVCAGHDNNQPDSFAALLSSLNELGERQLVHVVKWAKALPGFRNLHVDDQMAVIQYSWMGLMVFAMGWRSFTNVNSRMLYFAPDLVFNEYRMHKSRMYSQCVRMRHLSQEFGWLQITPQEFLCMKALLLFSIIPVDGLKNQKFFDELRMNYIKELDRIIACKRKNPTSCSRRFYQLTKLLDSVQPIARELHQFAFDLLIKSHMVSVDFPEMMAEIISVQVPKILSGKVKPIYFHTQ
T1 sequence (Q96SW2 whole entry partner): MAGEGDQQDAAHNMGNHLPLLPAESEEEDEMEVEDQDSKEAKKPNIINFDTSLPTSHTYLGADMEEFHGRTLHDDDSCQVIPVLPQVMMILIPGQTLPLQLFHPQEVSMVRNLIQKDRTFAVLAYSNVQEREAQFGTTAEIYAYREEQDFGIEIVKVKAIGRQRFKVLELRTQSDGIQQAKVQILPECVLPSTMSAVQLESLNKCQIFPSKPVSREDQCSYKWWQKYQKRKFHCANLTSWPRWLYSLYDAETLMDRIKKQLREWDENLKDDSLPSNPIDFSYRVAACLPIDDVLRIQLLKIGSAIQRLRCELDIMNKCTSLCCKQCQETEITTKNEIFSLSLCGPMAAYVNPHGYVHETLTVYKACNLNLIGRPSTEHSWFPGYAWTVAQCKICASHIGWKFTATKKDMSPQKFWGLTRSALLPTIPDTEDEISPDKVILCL

Row | Structure (SMILES) | inhibition at 0.01 µM [%] | inhibition at 0.1 µM [%] | inhibition at 1 µM [%] | inhibition at 10 µM (10 μM compound) [%]
1 | N#Cc1ccc(N2CCC(C(=O)Nc3ccc(N4CCC(CN5CCN(C[C@@H]6CCN(c7ccc8c(n7)CN(C7CCC(=O)NC7=O)C8=O)C6)CC5)CC4)cn3)CC2)cc1C(F)(F)F (stereo partly drawn) [Example 37, 1-(4-cyano-3-(trifluoromethyl)phenyl)-N-(5-(4-((4-(((3S)-1-(6-(2,6-dioxopiperidin-3-yl)-5-oxo-6,7-dihydro-5H-pyrrolo[3,4-b]pyridin-2-yl)pyrrolidin-3-yl)methyl)piperazin-1-yl)methyl)piperidin-1-yl)pyridin-2-yl)piperidine-4-carboxamide] | 51 | 93 | 90 | –
2 | N#Cc1ccc(N2CCC(C(=O)Nc3ccc(N4CCC(CN5CCN(C[C@@H]6CCN(c7cc8c(cc7F)C(=O)N(C7CCC(=O)NC7=O)C8=O)C6)CC5)CC4)cn3)CC2)cc1C(F)(F)F (stereo partly drawn) [Example 38, 1-(4-cyano-3-(trifluoromethyl)phenyl)-N-(5-(4-((4-(((3S)-1-(2-(2,6-dioxopiperidin-3-yl)-6-fluoro-1,3-dioxoisoindolin-5-yl)pyrrolidin-3-yl)methyl)piperazin-1-yl)methyl)piperidin-1-yl)pyridin-2-yl)piperidine-4-carboxamide] | 44 | 93 | 97 | –
3 | N#Cc1ccc(N2CCC(C(=O)Nc3ccc(N4CCC(CN5CCN(C[C@H]6CCN(c7ccc8c(n7)CN(C7CCC(=O)NC7=O)C8=O)C6)CC5)CC4)cn3)CC2)cc1C(F)(F)F (stereo partly drawn) [Example 39, 1-(4-cyano-3-(trifluoromethyl)phenyl)-N-(5-(4-((4-(((3R)-1-(6-(2,6-dioxopiperidin-3-yl)-5-oxo-6,7-dihydro-5H-pyrrolo[3,4-b]pyridin-2-yl)pyrrolidin-3-yl)methyl)piperazin-1-yl)methyl)piperidin-1-yl)pyridin-2-yl)piperidine-4-carboxamide] | 80 | 98 | 95 | –
4 | C[C@@H]1CN(CC2CCN(c3ccc(NC(=O)C4CCN(c5ccc(C#N)c(C(F)(F)F)c5)CC4)nc3)CC2)CCN1C1CN(c2ccc3c(c2)C(=O)N(C2CCC(=O)NC2=O)C3=O)C1 (stereo partly drawn) [Example 40, 1-(4-cyano-3-(trifluoromethyl)phenyl)-N-(5-(4-(((3R)-4-(1-(2-(2,6-dioxopiperidin-3-yl)-1,3-dioxoisoindolin-5-yl)azetidin-3-yl)-3-methylpiperazin-1-yl)methyl)piperidin-1-yl)pyridin-2-yl)piperidine-4-carboxamide] | 43 | 94 | 94 | –
5 | C[C@@H]1CN(C2CN(c3ccc4c(c3)C(=O)N(C3CCC(=O)NC3=O)C4=O)C2)CCN1CC1CCN(c2ccc(NC(=O)C3CCN(c4ccc(C#N)c(C(F)(F)F)c4)CC3)nc2)CC1 (stereo partly drawn) [Example 41, 1-(4-cyano-3-(trifluoromethyl)phenyl)-N-(5-(4-(((2R)-4-(1-(2-(2,6-dioxopiperidin-3-yl)-1,3-dioxoisoindolin-5-yl)azetidin-3-yl)-2-methylpiperazin-1-yl)methyl)piperidin-1-yl)pyridin-2-yl)piperidine-4-carboxamide] | 62 | 93 | 86 | –
6 | C[C@@H]1CN(C2CCN(c3ccc4c(c3)C(=O)N(C3CCC(=O)NC3=O)C4=O)CC2)CCN1CC1CCN(c2ccc(NC(=O)C3CCN(c4ccc(C#N)c(C(F)(F)F)c4)CC3)nc2)CC1 (stereo partly drawn) [Example 42, 1-(4-cyano-3-(trifluoromethyl)phenyl)-N-(5-(4-(((2R)-4-(1-(2-(2,6-dioxopiperidin-3-yl)-1,3-dioxoisoindolin-5-yl)piperidin-4-yl)-2-methylpiperazin-1-yl)methyl)piperidin-1-yl)pyridin-2-yl)piperidine-4-carboxamide] | 65 | 96 | 94 | –
7 | C[C@@H]1CN(C2CCN(c3ccc4c(n3)CN(C3CCC(=O)NC3=O)C4=O)CC2)CCN1CC1CCN(c2ccc(NC(=O)C3CCN(c4ccc(C#N)c(C(F)(F)F)c4)CC3)nc2)CC1 (stereo partly drawn) [Example 43, 1-(4-cyano-3-(trifluoromethyl)phenyl)-N-(5-(4-(((2R)-4-(1-(6-(2,6-dioxopiperidin-3-yl)-5-oxo-6,7-dihydro-5H-pyrrolo[3,4-b]pyridin-2-yl)piperidin-4-yl)-2-methylpiperazin-1-yl)methyl)piperidin-1-yl)pyridin-2-yl)piperidine-4-carboxamide] | 68 | 94 | 83 | –
8 | C[C@@H]1CN(CC2CCN(c3ccc4c(n3)CN(C3CCC(=O)NC3=O)C4=O)CC2)CCN1CC1CCN(c2ccc(NC(=O)C3CCN(c4ccc(C#N)c(C(F)(F)F)c4)CC3)nc2)CC1 (stereo partly drawn) [Example 44, 1-(4-cyano-3-(trifluoromethyl)phenyl)-N-(5-(4-(((2R)-4-((1-(6-(2,6-dioxopiperidin-3-yl)-5-oxo-6,7-dihydro-5H-pyrrolo[3,4-b]pyridin-2-yl)piperidin-4-yl)methyl)-2-methylpiperazin-1-yl)methyl)piperidin-1-yl)pyridin-2-yl)piperidine-4-carboxamide] | 80 | 98 | 93 | –
9 | C[C@H]1CN(C2CCN(c3ccc4c(n3)CN(C3CCC(=O)NC3=O)C4=O)CC2)CCN1CC1CCN(c2ccc(NC(=O)C3CCN(c4ccc(C#N)c(C(F)(F)F)c4)CC3)nc2)CC1 (stereo partly drawn) [Example 45, 1-(4-cyano-3-(trifluoromethyl)phenyl)-N-(5-(4-(((2S)-4-(1-(6-(2,6-dioxopiperidin-3-yl)-5-oxo-6,7-dihydro-5H-pyrrolo[3,4-b]pyridin-2-yl)piperidin-4-yl)-2-methylpiperazin-1-yl)methyl)piperidin-1-yl)pyridin-2-yl)piperidine-4-carboxamide] | 66 | 95 | 87 | –
10 | C[C@H]1CN(CC2CCN(c3ccc4c(n3)CN(C3CCC(=O)NC3=O)C4=O)CC2)CCN1CC1CCN(c2ccc(NC(=O)C3CCN(c4ccc(C#N)c(C(F)(F)F)c4)CC3)nc2)CC1 (stereo partly drawn) [Example 46, 1-(4-cyano-3-(trifluoromethyl)phenyl)-N-(5-(4-(((2S)-4-((1-(6-(2,6-dioxopiperidin-3-yl)-5-oxo-6,7-dihydro-5H-pyrrolo[3,4-b]pyridin-2-yl)piperidin-4-yl)methyl)-2-methylpiperazin-1-yl)methyl)piperidin-1-yl)pyridin-2-yl)piperidine-4-carboxamide] | 70 | 97 | 91 | –
11 | C[C@@H]1CN(CC2CCN(c3ccc(NC(=O)C4CCN(c5ccc(C#N)c(C(F)(F)F)c5)CC4)nc3)CC2)CCN1CC1CCN(c2ccc3c(n2)CN(C2CCC(=O)NC2=O)C3=O)CC1 (stereo partly drawn) [Example 47, 1-(4-cyano-3-(trifluoromethyl)phenyl)-N-(5-(4-(((3R)-4-((1-(6-(2,6-dioxopiperidin-3-yl)-5-oxo-6,7-dihydro-5H-pyrrolo[3,4-b]pyridin-2-yl)piperidin-4-yl)methyl)-3-methylpiperazin-1-yl)methyl)piperidin-1-yl)pyridin-2-yl)piperidine-4-carboxamide] | 65 | 95 | 89 | –
12 | C[C@H]1CN(CC2CCN(c3ccc(NC(=O)C4CCN(c5ccc(C#N)c(C(F)(F)F)c5)CC4)nc3)CC2)CCN1CC1CCN(c2ccc3c(n2)CN(C2CCC(=O)NC2=O)C3=O)CC1 (stereo partly drawn) [Example 48, 1-(4-cyano-3-(trifluoromethyl)phenyl)-N-(5-(4-(((3S)-4-((1-(6-(2,6-dioxopiperidin-3-yl)-5-oxo-6,7-dihydro-5H-pyrrolo[3,4-b]pyridin-2-yl)piperidin-4-yl)methyl)-3-methylpiperazin-1-yl)methyl)piperidin-1-yl)pyridin-2-yl)piperidine-4-carboxamide] | 59 | 94 | 87 | –
13 | N#Cc1ccc(N2CCC(C(=O)Nc3ccc(N4CCC(CN5CC6(CCN(c7ccc8c(c7)C(=O)N(C7CCC(=O)NC7=O)C8=O)CC6)C5)CC4)cn3)CC2)cc1Cl (stereo not shown) [Example 50, 1-(3-chloro-4-cyanophenyl)-N-(5-(4-((7-(2-(2,6-dioxopiperidin-3-yl)-1,3-dioxoisoindolin-5-yl)-2,7-diazaspiro[3.5]nonan-2-yl)methyl)piperidin-1-yl)pyridin-2-yl)piperidine-4-carboxamide] | 61 | 97 | 99 | 98
14 | CC1(C(=O)Nc2ccc(N3CCC(CN4CC5(CCN(c6ccc7c(c6)C(=O)N(C6CCC(=O)NC6=O)C7=O)CC5)C4)CC3)cn2)CCN(c2ccc(C#N)c(C(F)(F)F)c2)CC1 (stereo not shown) [Example 51, 1-(4-cyano-3-(trifluoromethyl)phenyl)-N-(5-(4-((7-(2-(2,6-dioxopiperidin-3-yl)-1,3-dioxoisoindolin-5-yl)-2,7-diazaspiro[3.5]nonan-2-yl)methyl)piperidin-1-yl)pyridin-2-yl)-4-methylpiperidine-4-carboxamide] | 33 | 85 | 94 | –
15 | N#Cc1ccc(N2CCC(C(=O)Nc3ccc(N4CCC(CN5CC6(CCN(c7ccc8c(=O)n(C9CCC(=O)NC9=O)nnc8c7)CC6)C5)CC4)cn3)CC2)cc1C(F)(F)F (stereo not shown) [Example 52, 1-(4-cyano-3-(trifluoromethyl)phenyl)-N-(5-(4-((7-(3-(2,6-dioxopiperidin-3-yl)-4-oxo-3,4-dihydrobenzo[d][1,2,3]triazin-7-yl)-2,7-diazaspiro[3.5]nonan-2-yl)methyl)piperidin-1-yl)pyridin-2-yl)piperidine-4-carboxamide] | 50 | 91 | 97 | –
